PMC11946908, “Plasmodium blood stage development requires the chromatin remodeller Snf2L” (Nature, 2025)

Columns and labels:
Format in all cases: biochemical
[1] = target: T1, HsSNF2L (Homo sapiens, UniProt P28370); test: […]-gamma-ATP hydrolysis, thin-layer chromatography; details: 500 µM ATP, 1.5 mM MgCl2, pH 7.6, 30 °C, with or without mononucleosomes
T1 construct: gene SMARCA1; 6xHis tag, baculovirus, Sf21 insect cells

[2] = target: T2, PfSnf2L (Plasmodium falciparum, UniProt Q8IIW0); test: as above; details: 500 µM ATP, 1.5 mM MgCl2, pH 7.6, 30 °C, with or without mononucleosomes
T2 construct: gene PF3D7_1104200; amino acids 250-1426, C-terminal 10xHis tag, baculovirus, Sf21 insect cells
T2 sequence (Q8IIW0 250-1426): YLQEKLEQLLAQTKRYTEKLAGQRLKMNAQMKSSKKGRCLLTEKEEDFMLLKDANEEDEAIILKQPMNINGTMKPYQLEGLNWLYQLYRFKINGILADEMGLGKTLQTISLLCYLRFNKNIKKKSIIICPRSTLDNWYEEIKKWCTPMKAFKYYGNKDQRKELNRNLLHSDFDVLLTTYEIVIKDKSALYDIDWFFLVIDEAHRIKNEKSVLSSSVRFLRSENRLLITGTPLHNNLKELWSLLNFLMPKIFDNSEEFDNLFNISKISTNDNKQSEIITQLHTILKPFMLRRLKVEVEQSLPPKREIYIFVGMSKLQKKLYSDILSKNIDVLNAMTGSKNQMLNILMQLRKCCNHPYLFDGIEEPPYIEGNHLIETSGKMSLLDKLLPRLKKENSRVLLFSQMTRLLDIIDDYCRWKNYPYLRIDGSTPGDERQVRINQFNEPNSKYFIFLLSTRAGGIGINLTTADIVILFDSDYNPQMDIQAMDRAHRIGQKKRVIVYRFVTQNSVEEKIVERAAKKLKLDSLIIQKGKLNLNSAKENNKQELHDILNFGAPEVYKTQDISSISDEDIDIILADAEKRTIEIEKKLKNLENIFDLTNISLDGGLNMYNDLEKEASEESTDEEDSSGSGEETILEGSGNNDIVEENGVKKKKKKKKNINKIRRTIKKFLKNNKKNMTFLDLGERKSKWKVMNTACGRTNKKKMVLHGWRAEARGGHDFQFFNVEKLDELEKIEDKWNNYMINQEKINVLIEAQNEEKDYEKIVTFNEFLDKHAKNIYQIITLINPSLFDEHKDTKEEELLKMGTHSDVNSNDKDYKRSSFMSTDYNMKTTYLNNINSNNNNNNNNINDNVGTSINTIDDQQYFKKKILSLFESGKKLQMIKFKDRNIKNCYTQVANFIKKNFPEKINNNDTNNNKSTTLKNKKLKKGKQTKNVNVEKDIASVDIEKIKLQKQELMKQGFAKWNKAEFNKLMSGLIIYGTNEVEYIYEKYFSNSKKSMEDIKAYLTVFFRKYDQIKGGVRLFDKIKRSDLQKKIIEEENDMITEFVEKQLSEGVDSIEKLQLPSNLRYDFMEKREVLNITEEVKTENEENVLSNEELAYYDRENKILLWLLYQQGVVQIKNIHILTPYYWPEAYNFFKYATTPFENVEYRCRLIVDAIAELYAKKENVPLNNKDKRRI

[3] = target: T2, PfSnf2L; test: ADP biosensor (TMR-ParM) ATPase assay, single dose response; details: 0.4 µM enzyme, 125 µM ATP, plasmid DNA, 5 µM H4 peptide, 1.5 mM MgCl2, pH 8.6, 28 °C; allosteric

T1 sequence (P28370 whole entry): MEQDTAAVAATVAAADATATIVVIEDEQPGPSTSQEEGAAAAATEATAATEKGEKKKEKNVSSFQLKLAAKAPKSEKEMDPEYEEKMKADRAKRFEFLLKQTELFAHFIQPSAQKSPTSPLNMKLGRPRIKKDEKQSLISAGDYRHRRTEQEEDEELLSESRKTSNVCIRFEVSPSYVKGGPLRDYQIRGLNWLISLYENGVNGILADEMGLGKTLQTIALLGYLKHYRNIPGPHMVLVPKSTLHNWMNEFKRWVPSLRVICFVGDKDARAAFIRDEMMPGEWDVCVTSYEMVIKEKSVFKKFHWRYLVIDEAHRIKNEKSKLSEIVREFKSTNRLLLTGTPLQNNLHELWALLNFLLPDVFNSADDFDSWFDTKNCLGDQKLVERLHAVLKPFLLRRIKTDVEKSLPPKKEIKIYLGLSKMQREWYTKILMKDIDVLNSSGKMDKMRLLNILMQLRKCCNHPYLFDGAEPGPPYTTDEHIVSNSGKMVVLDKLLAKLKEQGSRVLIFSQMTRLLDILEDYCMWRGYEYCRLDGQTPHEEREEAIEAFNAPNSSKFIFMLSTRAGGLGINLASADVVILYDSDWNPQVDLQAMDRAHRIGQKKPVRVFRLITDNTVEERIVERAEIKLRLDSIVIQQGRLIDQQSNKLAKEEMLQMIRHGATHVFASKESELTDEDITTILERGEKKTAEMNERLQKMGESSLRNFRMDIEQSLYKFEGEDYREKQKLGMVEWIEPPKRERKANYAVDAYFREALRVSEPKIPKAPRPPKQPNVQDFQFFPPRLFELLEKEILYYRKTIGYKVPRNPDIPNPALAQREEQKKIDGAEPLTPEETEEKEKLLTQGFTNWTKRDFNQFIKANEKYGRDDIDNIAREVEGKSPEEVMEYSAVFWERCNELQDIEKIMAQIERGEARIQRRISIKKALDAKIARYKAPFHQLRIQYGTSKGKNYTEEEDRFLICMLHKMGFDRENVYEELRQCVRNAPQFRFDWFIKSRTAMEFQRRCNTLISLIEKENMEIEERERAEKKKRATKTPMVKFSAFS

Nc1ncnc2c1ncn2[C@@H]1O[C@H](COP(=O)(O)OP(=O)(O)OP(=O)(O)O)[C@@H](O)[C@H]1O [ATP]
32P-gamma-ATP hydrolysis, thin-layer chromatography [1]: The non-stimulated or nucleosome-stimulated ATP hydrolysis rate of PfSnf2L/HsSNF2L
32P-gamma-ATP hydrolysis, thin-layer chromatography [2]: The non-stimulated or nucleosome-stimulated ATP hydrolysis rate of PfSnf2L/HsSNF2L

CCCCCCCCCCCCCCCC[n+]1ccn(Cc2ccccc2)c1C [NH125]
ADP biosensor (TMR-ParM) ATPase assay, single dose response [3]: ATP hydrolysis kinetic of PfSnf2L in presence of NH125 in varying concentrations
